Experimental data: patent publication US20090221624A1, “4-AMINOQUINOLINE COMPOUNDS FOR TREATING VIRUS-RELATED CONDITIONS” (priority 2005, published 2009)
Read-outs that look alike come from different tables or passages of the source.

What was measured:
WNV (WN-hRuPac cells) = assay: WNV antiviral activity, WN-hRuPac cells, Renilla luciferase; format: cell-based, West Nile virus; conditions: for EC50 / inhibition at 25 µM: West Nile virus; for EC50: Secondary Data, WNV, read-out: WNV EC50; for WNV TI: therapeutic index CC50/EC50, WNV; for inhibition at 25 µM: primary screening, 25 μM final concentration, 24 hours, percent inhibition of viral replication, read-out: WNV Inh
YFV (YF-hRuPac cells) = assay: microbe, parasite or virus in culture; format: cell-based, yellow fever virus; conditions: for EC50 / inhibition at 25 µM: Yellow fever virus; for EC50: read-out: YFV EC50; for inhibition at 25 µM: 24 h, read-out: YFV Inh
DNG (D2-hRuPac cells) = assay: DNG antiviral activity, D2-hRuPac cells, Renilla luciferase; format: cell-based, Dengue fever virus; conditions: Dengue virus, secondary screening
[1] = tested on: viable cells (intracellular ATP)
EBOV minigenome = assay: microbe, parasite or virus in culture; format: cell-based, Ebola virus; conditions: for EC50: read-out: EBOV EC50; for inhibition at 25 µM: 24 h, read-out: EBOV Inh
SINV (SR19-F-luc cells) = assay: SINV antiviral activity, SR19-F-luc cells, Firefly luciferase; format: cell-based; conditions: Sindbis virus; for EC50: secondary screening, SR19-F-luc cells; for inhibition at 25 µM: primary screening, 25 μM final concentration, 24 hours, percent inhibition of viral replication, read-out: SINV Inh
RSV minigenome = assay: RSV minigenome-dependent β-galactosidase expression assay (RSV β-Gal); format: cell-based, respiratory syncytial virus; conditions: for EC50: Secondary Data, RSV, read-out: RSV EC50; for RSV TI: therapeutic index CC50/EC50, RSV; for inhibition at 25 µM: primary screening, 25 μM final concentration, 24 hours, percent inhibition of viral replication, read-out: RSV Inh
[2] = tested on: HCV replicon (Clone A cells, Huh7, subgenomic hepatits C virus RNA); assay: HCV Neo screening assay (HCV replicon, NPTII ELISA); format: cell-based, hepatitis C virus; conditions: for inhibition at 25 µM / EC50: Hepatitis C virus, Huh-7; for inhibition at 25 µM: primary screening, 25 μM final concentration, 24 hours, percent inhibition of viral replication, read-out: HCV Inh; for EC50: Secondary Data, HCV; for HCV TI: therapeutic index CC50/EC50, HCV
[3] = human respiratory syncytial virus

| SMILES | EC50 (WNV (WN-hRuPac cells)) | WNV TI (WNV (WN-hRuPac cells)) | YFV TI (YFV (YF-hRuPac cells)) | EC50 (YFV (YF-hRuPac cells)) | EC50 (DNG (D2-hRuPac cells)) | CC50 (in vitro; HCV CC50) | EC50 (SINV (SR19-F-luc cells)) | RSV TI (RSV minigenome) | inhibition at 25 µM (WNV (WN-hRuPac cells)) | inhibition at 25 µM (YFV (YF-hRuPac cells)) | inhibition at 25 µM [2] | inhibition at 25 µM (EBOV minigenome; Zaire ebolavirus) | EC50 (EBOV minigenome; Zaire ebolavirus) | CC50 (in vitro; DNG CC50) | CC50 (in vitro; EBOV CC50) | CC50 (in vitro; RSV CC50) | CC50 (in vitro; SINV CC50) | CC50 (in vitro; WNV CC50) | CC50 (in vitro; YFV CC50) | inhibition at 25 µM (SINV (SR19-F-luc cells)) | other results |
| --- | --- | --- | --- | --- | --- | --- | --- | --- | --- | --- | --- | --- | --- | --- | --- | --- | --- | --- | --- | --- | --- |
| COc1ccccc1Nc1cc(C)nc2c(C)c(C)cc(N)c12 [Compound 79] | 19 µM | 2.7 | 16.53 | 3.1 µM | 8.26 µM | ≥ 75 µM | 8.57 µM | 23.3 | – | – | – | – | – | – | – | – | – | – | – | – | CC50 [1]: 51.2 µM; EBOV Inh (EBOV minigenome): 49.83%; EC50 (EBOV minigenome): 43.5 µM; EC50 (RSV minigenome): 2.2 µM |
| COc1ccc(Nc2cc(C)nc3ccccc23)cc1 [Compound 20] | ≥ 75 µM | – | 2.83 | 26.5 µM | 42 µM | 64.2 µM | 4.28 µM | 8.8 | 38.4% | 51% | 14.8% | 21% | 50.1 µM | ≥ 75 µM | ≥ 75 µM | ≥ 75 µM | ≥ 75 µM | ≥ 75 µM | ≥ 75 µM | 75.5% | EC50 (RSV minigenome; [3]): 8.52 µM; inhibition at 25 µM (RSV minigenome; [3]): 61.4% |
| Cc1cc(Nc2cccc(Cl)c2C)c2cccc(C)c2n1 [Compound 65] | 5.72 µM | 13.11 | – | ≥ 75 µM | ≥ 75 µM | 13 µM | ≥ 75 µM | 38.46 | 80.6% | 76.3% | 114% | 81.8% | 48.8 µM | ≥ 75 µM | ≥ 75 µM | ≥ 75 µM | ≥ 75 µM | ≥ 75 µM | ≥ 75 µM | 72.2% | EC50 [2]: 8.48 µM; HCV TI [2]: 1.53; EC50 (RSV minigenome; [3]): 1.95 µM; inhibition at 25 µM (RSV minigenome; [3]): 96.6% |
| Cc1cc(Nc2cccc(C(F)(F)F)c2)c2cc(Cl)ccc2n1 [Compound 40] | 8.39 µM | 7.15 | 9.3 | 6.45 µM | 40.6 µM | 5.53 µM | 14.4 µM | 24.68 | 65.6% | 79.6% | 96.1% | 26.3% | 75 µM | 60 µM | 60 µM | 60 µM | 60 µM | 60 µM | 60 µM | 69.5% | EC50 [2]: 5.55 µM; HCV TI [2]: 1; EC50 (RSV minigenome; [3]): 2.43 µM; inhibition at 25 µM (RSV minigenome; [3]): 99.3% |
| CCOC(=O)c1ccc2ncc(C(=O)OCC)c(NCc3ccco3)c2c1 [Compound 13] | 4.78 µM | 7.4 | 3.98 | 8.88 µM | 10.5 µM | ≥ 75 µM | 44.5 µM | 12.07 | 98% | 89.5% | 27.4% | 59% | 6.03 µM | 35.4 µM | 35.4 µM | 35.4 µM | 35.4 µM | 35.4 µM | 35.4 µM | -12.1% | EC50 (RSV minigenome; [3]): 2.93 µM; inhibition at 25 µM (RSV minigenome; [3]): 92.1% |
| CCOC(=O)c1cnc2ccc(OCC)cc2c1NCc1ccco1 [Compound 36] | 2.38 µM | 19.87 | 6.98 | 6.78 µM | 16.5 µM | 21.3 µM | ≥ 75 µM | 32.4 | 93.7% | 94.4% | 135% | 15.5% | 75 µM | 47.3 µM | 47.3 µM | 47.3 µM | 47.3 µM | 47.3 µM | 47.3 µM | -58.8% | EC50 [2]: 6 µM; HCV TI [2]: 3.55; EC50 (RSV minigenome; [3]): 1.46 µM; inhibition at 25 µM (RSV minigenome; [3]): 100% |
| COc1ccc2nc(C)cc(Nc3ccc(I)cc3)c2c1 [Compound 76] | 50.4 µM | 0.7 | 3.98 | 8.92 µM | 13.5 µM | 21.5 µM | 2.55 µM | 1.95 | 85.9% | 93.1% | 152% | 93.9% | 19.8 µM | 35.5 µM | 35.5 µM | 35.5 µM | 35.5 µM | 35.5 µM | 35.5 µM | 93.5% | EC50 [2]: 11.3 µM; HCV TI [2]: 1.9; EC50 (RSV minigenome; [3]): 18.2 µM; inhibition at 25 µM (RSV minigenome; [3]): 75.9% |
| COc1cccc2c(Nc3ccc4c(c3)OCCO4)cc(C)nc12 [Compound 22] | 22.4 µM | 2.56 | 0.76 | ≥ 75 µM | 35.6 µM | 13.7 µM | 72.3 µM | 19.08 | 48.8% | 29.9% | 55.1% | 72% | 5.31 µM | 57.2 µM | 57.2 µM | 57.2 µM | 57.2 µM | 57.2 µM | 57.2 µM | -22.7% | EC50 [2]: 18.1 µM; HCV TI [2]: 0.75; EC50 (RSV minigenome; [3]): 3 µM; inhibition at 25 µM (RSV minigenome; [3]): 75.1% |
| c1coc(CNc2c3c(nc4ccccc24)CCC3)c1 [Compound 10] | 9.79 µM | 5.97 | 4.06 | 14.4 µM | 24.7 µM | 47.6 µM | 69.9 µM | 23.29 | 81.2% | 86.2% | 34.6% | 38.1% | 43.2 µM | 58.5 µM | 58.5 µM | 58.5 µM | 58.5 µM | 58.5 µM | 58.5 µM | 15.9% | EC50 (RSV minigenome; [3]): 2.51 µM; inhibition at 25 µM (RSV minigenome; [3]): 99.6% |
| CCc1ccccc1Nc1cc(C)nc2c(OC)cccc12 [Compound 24] | 25.6 µM | 2.26 | 0.77 | ≥ 75 µM | 27.7 µM | – | 16.6 µM | 12.86 | 73.9% | 67.3% | 43.7% | 35.3% | 55.8 µM | 57.9 µM | 57.9 µM | 57.9 µM | 57.9 µM | 57.9 µM | 57.9 µM | 64.1% | EC50 (RSV minigenome; [3]): 4.5 µM; inhibition at 25 µM (RSV minigenome; [3]): 94.7% |
